Drawing on patent US9085576B2 (AMGEN INC., priority 2013, dated 2015), this text covers IC50 for ten molecules.

The term IC50 denotes the concentration that inhibits the measured activity by half.

In one experiment the target is Cathepsin D (Cat D) (Homo sapiens (Human), UniProt P07339). The experiment in a line: In vitro enzymatic Cathepsin D (Cat D) FRET assay. Particulars: read-out: CatD IC50. Format: biochemical.
The target of another experiment is BACE (Homo sapiens (Human), UniProt P56817). The experiment is described as follows: In vitro BACE cell-based assay (Aβ40 in conditioned medium, sandwich ELISA). (In general: ELISA stands for enzyme-linked immunosorbent assay.)
Sequence of BACE (P56817 46-501, species assumed): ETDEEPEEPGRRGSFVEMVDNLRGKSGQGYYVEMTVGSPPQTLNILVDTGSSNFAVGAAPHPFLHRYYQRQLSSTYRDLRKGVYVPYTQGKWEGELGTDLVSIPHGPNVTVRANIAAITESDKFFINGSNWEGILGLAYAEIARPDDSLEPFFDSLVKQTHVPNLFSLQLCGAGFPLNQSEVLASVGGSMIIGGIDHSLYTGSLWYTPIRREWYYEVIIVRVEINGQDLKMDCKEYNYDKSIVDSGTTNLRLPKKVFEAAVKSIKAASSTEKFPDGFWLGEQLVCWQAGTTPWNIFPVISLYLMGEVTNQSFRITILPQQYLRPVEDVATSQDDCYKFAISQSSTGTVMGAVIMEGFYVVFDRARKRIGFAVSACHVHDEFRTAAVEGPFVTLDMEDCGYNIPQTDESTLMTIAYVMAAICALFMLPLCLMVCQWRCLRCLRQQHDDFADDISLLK
Experiment [1] has as its target Beta Secretase enzyme (BACE) (Homo sapiens (Human), UniProt P56817). The experiment is described as follows: In vitro enzymatic BACE FRET assay. Format: biochemical. The following applies: read-out: BACE1 Enzyme assay IC50.

Sequence of Beta Secretase enzyme (BACE) (P56817 46-501): as the sequence (P56817 46-501, species assumed) above
Sequence of Cathepsin D (Cat D) (P07339 65-412, species assumed): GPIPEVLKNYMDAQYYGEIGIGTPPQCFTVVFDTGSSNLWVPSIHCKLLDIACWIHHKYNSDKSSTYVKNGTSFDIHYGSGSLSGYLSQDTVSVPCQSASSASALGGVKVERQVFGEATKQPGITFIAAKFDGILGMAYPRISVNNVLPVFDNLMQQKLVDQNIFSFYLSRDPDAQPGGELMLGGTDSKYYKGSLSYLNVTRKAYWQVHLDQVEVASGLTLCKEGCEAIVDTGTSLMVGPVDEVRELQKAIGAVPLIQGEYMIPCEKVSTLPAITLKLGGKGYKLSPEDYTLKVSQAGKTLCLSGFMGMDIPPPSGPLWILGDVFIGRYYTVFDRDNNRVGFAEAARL

As for `NC1=N[C@@](c2cc(NC(=O)COc3ccccc3)ccc2F)(C(F)F)[C@H]2C[C@H]2O1` [Example 256, N-(3-((1R,5S,6R)-3-amino-5-(difluoromethyl)-2-oxa-4-azabicyclo[4.1.0]hept-3-en-5-yl)-4-fluorophenyl)-2-phenoxyacetamide], the IC50 was 331 µM at Cathepsin D (Cat D), 2.18 µM against BACE and 6.66 µM in experiment [1].
On to `NC1=N[C@@](c2cc(NC(=O)C3CC(=O)C3)ccc2F)(C(F)F)[C@H]2C[C@H]2O1` [Example 258, N-(3-((1R,5S,6R)-3-amino-5-(difluoromethyl)-2-oxa-4-azabicyclo[4.1.0]hept-3-en-5-yl)-4-fluorophenyl)-3-oxocyclobutane-carboxamide], for which the figures for the IC50 (on Cathepsin D (Cat D); on BACE; in experiment [1]) were 117 µM, 2.6 µM and 20.1 µM, respectively.
In the case of `NC1=N[C@@](c2cc(NC(=O)C3CC3)ccc2F)(C(F)F)[C@H]2C[C@H]2O1` [Example 260, N-(3-((1R,5S,6R)-3-amino-5-(difluoromethyl)-2-oxa-4-azabicyclo[4.1.0]hept-3-en-5-yl)-4-fluorophenyl) cyclopropanecarboxamide], the IC50 was 104 µM on Cathepsin D (Cat D), 3.19 µM against BACE and 5.17 µM in experiment [1].
`NC1=N[C@@](c2cc(NC(=O)c3cnc(Cl)cn3)ccc2F)(C(F)F)[C@H]2C[C@H]2O1` [Example 261, N-(3-((1R,5S,6R)-3-amino-5-(difluoromethyl)-2-oxa-4-azabicyclo[4.1.0]hept-3-en-5-yl)-4-fluorophenyl)-5-chloropyrazine-2-carboxamide]: the IC50 at Cathepsin D (Cat D) was found to be 444 µM; against BACE, 1.59 µM; in experiment [1] it was 0.037 µM.
In the same order, the values of `NC1=N[C@@](c2cc(NC(=O)C#Cc3ccccc3)ccc2F)(C(F)F)[C@H]2C[C@H]2O1` [Example 262, N-(3-((1R,5S,6R)-3-amino-5-(difluoromethyl)-2-oxa-4-azabicyclo[4.1.0]hept-3-en-5-yl)-4-fluorophenyl)-3-phenylpropiolamide] are 204 µM, 0.144 µM and 0.245 µM.
The matching figures for `NC1=N[C@](c2cccc(NC(=O)c3ccc(Cl)cn3)c2)(C(F)F)[C@@H]2C[C@@H]2O1` [Example 264, N-(3-((1 S,5R,6S)-3-amino-5-(difluoromethyl)-2-oxa-4-azabicyclo[4.1.0]hept-3-en-5-yl)phenyl)-5-chloropicolinamide]: above 400 µM, above 15.6 µM and 35.9 µM.
With `Cc1cnc(C(=O)Nc2ccc(F)c([C@@]3(C(F)F)N=C(N)O[C@@H]4C[C@@H]43)c2)cn1` [Example 266, N-(3-((1R,5S,6R)-3-amino-5-(difluoromethyl)-2-oxa-4-azabicyclo[4.1.0]hept-3-en-5-yl)-4-fluorophenyl)-5-methylpyrazine-2-carboxamide], the IC50 is 1160 µM at Cathepsin D (Cat D), 0.776 µM against BACE and 0.817 µM in experiment [1].
Turning to `NC1=N[C@](CF)(c2cc(NC(=O)c3ccc(Cl)cn3)ccc2Cl)[C@H]2C[C@H]2O1` [Example 270, N-(3-((1R,5S,6R)-3-amino-5-(fluoromethyl)-2-oxa-4-azabicyclo[4.1.0]hept-3-en-5-yl)-4-chlorophenyl)-5-chloropicolinamide], the results for the IC50 (at Cathepsin D (Cat D); against BACE; in experiment [1]) were 646 µM, 0.0122 µM and 0.0669 µM, respectively.
In the same order, the values of `COc1cnc(C(=O)Nc2ccc(Cl)c([C@@]3(CF)N=C(N)O[C@@H]4C[C@@H]43)c2)cn1` [Example 272] are 1730 µM, 0.0274 µM and 0.143 µM.
In the same order, the values of `COc1cnc(C(=O)Nc2ccc(Cl)c([C@]3(CF)N=C(N)O[C@H]4C[C@H]43)c2)cn1` [Example 273] are 1970 µM, 2.66 µM and 36.3 µM.
